Assay results reported in US20220389422A1, “IONIZABLE CATIONIC LIPIDS FOR RNA DELIVERY” (Arcturus Therapeutics, Inc., priority 2021, published 2022).

Assays:
factor VII = assay: Factor VII knock down evaluation (LNP with FVII siRNA); assay type: in vivo, Balb/C mice; conditions: intravenous, plasma FVII after 48 h, relative to saline-treated controls; for FVII KD % _ 0.01 mpk: 0.01 mg/kg; for FVII KD % _ 0.03 mpk: 0.03 mg/kg
Experimental: Lipid formulations comprising a FVII siRNA further described below were evaluated for their knockdown activity using the protocol of this example. In the FVII evaluation, seven to eight week-old, female Balb/C mice were purchased from Charles River Laboratories (Hollister, Calif.). The mice were held in a pathogen-free environment and all procedures involving the mice were performed in accordance with guidelines established by the Institutional Animal Care and Use Committee (IACUC). Lipid nanoparticles containing factor VII siRNA were administered intravenously at a dosing volume of 10 mL/kg and two dose levels (0.03 and 0.01 mg/kg). After 48 h, the mice were anesthetized with isoflurane and blood was collected retro-orbitally into Microtainer® tubes coated with 0.109 M sodium citrate buffer (BD Biosciences, San Diego, Calif.) and processed to plasma. Plasma specimens were tested for factor VII levels immediately or stored at −80° C. for later analysis. Measurement of FVII protein in plasma was determined using the colorimetric Biophen VII assay kit (Aniara Diagnostica, USA). Absorbance was measured at 405 nm and a calibration curve was generated using the serially diluted control plasma to determine levels of factor VII in plasma from treated animals, relative to the saline-treated control animals.

hEPO mRNA = hEPO mRNA expression evaluation (hEPO-LNPs); assay type: in vivo, Balb/c mice; conditions: intravenous (tail vein), serum hEPO after 6 hr, ELISA; for EPO expression (ng/mL)_0.03 mpk: 0.03 mg/kg; for EPO expression (ng/mL)_0.1 mpk: 0.1 mg/kg
Experimental: Protocol for hEPO mRNA Expression Evaluation Lipid formulations comprising a hEPO mRNA below were evaluated for their ability to express hEPO in vivo according to the protocol of this example. All animal experiments were conducted using institutionally-approved protocols (IACUC). In this protocol, female Balb/c mice at least 6-8 weeks of age were purchased from Charles River Laboratory. The mice were intravenously injected with hEPO-LNPs via the tail vein with one of two dose levels of hEPO (0.1 and 0.03 mg/kg). After 6 hr, blood was collected with serum separation tubes, and the serum was isolated by centrifugation. Serum hEPO levels were then measured using an ELISA assay (Human Erythropoietin Quantikine IVD ELISA Kit, R&D Systems, Minneapolis, Md.).

Measured pKa = assay type: physicochemical; conditions: read-out: (pKa) measured pKa in parenthesis
Mouse plasma stability = assay type: in vitro ADME, CD-1 mouse; conditions: 37° C., starting concentration 1 μM, 120 min, LC-MS
Experimental: Lipid stock solution was prepared by dissolution of the lipid in isopropanol at the concentration of 5 mg/mL. A requisite volume of the lipid-isopropanol solution was then diluted to 100 μM concentration at a total volume of 1.0 mL with in 50:50 (v/v) ethanol/water. Ten microliters of this 100 μM solution was spiked into 1.0 mL of mouse plasma (BioIVT, Cat. No.: MSE00PLNHUNN, CD-1 mouse, anticoagulant: sodium heparin, not filtered) that was pre-warmed to 37° C. and was stirred at 50 rpm with a magnetic stir bar. The starting concentration of lipids in plasma was thus 1 μM. At time points 0, 15, 30, 45, 60 and 120 min, 0.1 mL of the plasma was withdrawn from the reaction mixture and the protein was precipitated by adding 0.9 mL of ice-cold 4:1 (v/v) acetonitrile/methanol with 1 μg/mL of a selected internal standard lipid added. After filtration through a 0.45 micron 96-well filtering plate, the filtrates were analyzed by LC-MS (Thermo Fisher's Vanquish UHPLC-LTQ XL linear ion trap Mass Spectrometer); Waters XBridge BEH Shield RP18 2.5 µm (2.1×100 mm) column with its matching guard column. Mobile phase A was 0.1% formic acid in water, and mobile phase B was 0.1% formic acid in 1:1 (v/v) acetonitrile/methanol. Flow rate was […]. Elution gradient was: Time 0-1 min: 10% B; 1-6 min: 10%-95% B; 6-8.5 min: 95% B; 8.5-9 min: 95%-10% B; 9-10 min: 10% B. Mass spectrometry was in positive scanning mode from 600-1100 m/z. The peak of the molecular ion of the lipids was integrated in the extracted ion chromatography
(XIC) using Xcalibur software (Thermo Fisher). The relative peak area compared to T=0, after normalization by the peak area of the internal standard, was used as the percentage of the lipid remaining at each time point. T1/2 values were calculated using the first-order decay model.

[1] = In vivo biodegradability assay (lipid in mouse liver); set-up: species or system mice; conditions: for concentration at 48 h: 0.03 mg/Kg dose, read-out: In vivo degradability ng/g of tissue at 48 h_0.03 mpk; for In vivo degradability ng/tissue at 48 h_0.1 mpk: 48 h, 0.1 mg/Kg dose
Experimental: In vivo biodegradability assay was performed to assess the biodegradability of lipids in the LNP. Briefly, mice were injected with either 0.1 or 0.03 mg/Kg dose and after 24 or 48 hours mice livers were collected. To measure the concentration of lipids in the mouse liver, liver samples were homogenized in appropriate buffer in 1-10 dilution and mixed with the same amount of stabilized plasma. The samples were then mixed with organic solvents spiked with internal standard to precipitate proteins. After centrifugation, supernatant was diluted further with organic solvent before sample analysis by LC-MS. In LC-MS analysis, positive electrospray ionization was used, and multiple reaction monitoring (MRM) parameters were set up to specifically target the lipid analyte and internal standard. Calibration standards were prepared in stabilized plasma and mixed with same amount of homogenization buffer before protein precipitation. Quality control samples with known amounts of lipid was prepared in blank liver homogenate to monitor the precision and accuracy of the assay.

pKa (Measured pKa)	Percent of lipid remaining in mouse plasma after 2 h (Mouse plasma stability) [%]	concentration at 48 h [1] [ng/g]	In vivo degradability ng/tissue at 48 h_0.1 mpk [1] [ng/tissue]	SMILES	FVII KD % _ 0.01 mpk (factor VII) [%]	FVII KD % _ 0.03 mpk (factor VII) [%]	EPO expression (ng/mL)_0.03 mpk (hEPO mRNA) [ng/mL]	EPO expression (ng/mL)_0.1 mpk (hEPO mRNA) [ng/mL]
6.53				CCCCCCCC(CCCCCCC)OC(=O)CCCC(CCCC(=O)OC(CCCCC)CCCCC)OC(=O)CCCN(C)C (centres unmarked) [ATX-210]	87	97.65	329	662
	89	0	0	CCCCCCC(CCCCCC)COC(=O)CCCCCC(CCCCCC(=O)OCC(CCCCCC)CCCCCC)OC(=O)CCCN(C)C [ATX-231]	72	86	1706	5446
	80	0	647	CCCCCCC(CCCCCC)OC(=O)CCCCCC(CCCCCC(=O)OC(CCCCCC)CCCCCC)OC(=O)CCCN(C)C [ATX-209]	65.7	90.6	65	290
	91	566	2613	CCCCCC(CC)C(=O)OCCCCCCCCCC(CCCCCCCCCOC(=O)C(CC)CCCCC)OC(=O)CCCN(C)C (centres unmarked) [Compound-10111, reference compound]	89	95	105	213

Second part, the compound before the results:

SMILES	pKa (Measured pKa)	Percent of lipid remaining in mouse plasma after 2 h (Mouse plasma stability) [%]	concentration at 48 h [1] [ng/g]	In vivo degradability ng/tissue at 48 h_0.1 mpk [1] [ng/tissue]	FVII KD % _ 0.01 mpk (factor VII) [%]	FVII KD % _ 0.03 mpk (factor VII) [%]	EPO expression (ng/mL)_0.03 mpk (hEPO mRNA) [ng/mL]	EPO expression (ng/mL)_0.1 mpk (hEPO mRNA) [ng/mL]
CCCCCCCC(CCCCCCC)OC(=O)CCC(CCC(=O)OC(CCCCCCC)CCCCCCC)COC(=O)CCCN(C)C [ATX-201]	6.74				87.4	97.5	523	680
CCCCCCCC(CCCCCCC)COC(=O)CCCC(CCCC(=O)OC(CCCCCCC)CCCCCCC)OC(=O)CCCN(C)C (centres unmarked) [ATX-232]					74	90	2115	510
CCCCCCCC(CCCCCCC)OC(=O)CCCC(CCCC(=O)OC(CCCCCCC)CCCCCCC)COC(=O)CCCN(C)C [ATX-200, 1,9-bis(pentadecan-8-yl) 5-([[4-(dimethylamino)butanoyl]oxy]methyl) nonanedioate]	6.78				87.1	97.5	494	828
CCCCCCCC(CCCCCCC)OC(=O)CCCC(CCCC(=O)OC(CCCCCCC)CCCCCCC)OC(=O)CCCN(C)C [ATX-193, 1,9-bis(pentadecan-8-yl)5-[[4-(dimethylamino)butanoyl]oxy] nonanedioate]	6.35				95.6	100	264	498
CCCCCCCC(CCCCCCC)OC(=O)CCCC(CCCC(=O)OC(CCCCCCC)CCCCCCC)SC(=O)CCCN(C)C [ATX-202]	6.17				61.42	83.22	447	531
